Data on three compounds can be found in publication doi:10.1101/2025.01.14.632949v1 (biorxiv, 2025).

Sequence of Gal-3 (P17931 2-250): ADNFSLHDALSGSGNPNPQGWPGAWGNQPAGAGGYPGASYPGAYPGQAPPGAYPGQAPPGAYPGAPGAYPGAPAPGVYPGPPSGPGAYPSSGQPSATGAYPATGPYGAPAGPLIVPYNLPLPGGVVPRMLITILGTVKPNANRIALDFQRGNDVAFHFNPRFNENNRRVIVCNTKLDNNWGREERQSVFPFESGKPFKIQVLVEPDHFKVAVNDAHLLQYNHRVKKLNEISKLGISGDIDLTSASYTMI

This assay has as its target Gal-3 (Homo sapiens, UniProt P17931). The assay is described as follows: biolayer interferometry, steady-state analysis. The class given is binding.
Compound `OC[C@H]1O[C@H](Oc2ccc(N=Nc3c(O)c(N=Nc4ccc(O[C@H]5O[C@H](CO)[C@H](O)[C@H](O)[C@H]5O)cc4)c(O)c(N=Nc4ccc(O[C@H]5O[C@H](CO)[C@H](O)[C@H](O)[C@H]5O)cc4)c3O)cc2)[C@H](O)[C@@H](O)[C@H]1O` [αGalY] showed a Kd of 3.31 µM.
With `OC[C@H]1O[C@@H](Oc2ccc(N=Nc3c(O)c(N=Nc4ccc(O[C@@H]5O[C@H](CO)[C@H](O)[C@H](O)[C@H]5O)cc4)c(O)c(N=Nc4ccc(O[C@@H]5O[C@H](CO)[C@H](O)[C@H](O)[C@H]5O)cc4)c3O)cc2)[C@H](O)[C@@H](O)[C@H]1O` [βGalY] the figure was 9.14 ± 3.42 µM.
As to `OC[C@H]1O[C@@H](O[C@H]2[C@H](O)[C@@H](O)[C@H](Oc3ccc(N=Nc4c(O)c(N=Nc5ccc(O[C@@H]6O[C@H](CO)[C@@H](O[C@@H]7O[C@H](CO)[C@H](O)[C@H](O)[C@H]7O)[C@H](O)[C@H]6O)cc5)c(O)c(N=Nc5ccc(O[C@@H]6O[C@H](CO)[C@@H](O[C@@H]7O[C@H](CO)[C@H](O)[C@H](O)[C@H]7O)[C@H](O)[C@H]6O)cc5)c4O)cc3)O[C@@H]2CO)[C@H](O)[C@@H](O)[C@H]1O` [βLacY], the Kd stood at 3.46 ± 1.75 µM.
